Test results from patent US8383852B2, “Compounds having a cyclic moiety and compositions for delivering active agents” (Emisphere Technologies, Inc., priority 2007, dated 2013).

Test system: male, Sprague-Dawley rats
Test: Oral delivery of insulin in rats: change in whole blood glucose after insulin plus delivery agent
Assay type: in vivo, rat
Conditions: oral gavage
Experimental: Human recombinant insulin (ICN Biomedicals, Aurora, Ohio) was dissolved in deionized water (ph ˜6.5) to obtain stock insulin solutions having a concentration of 15 mg/ml. 3-[4-(cyclopropylmethoxy)phenyl]propanoic acid (Emisphere Technologies, Tarrytown, N.Y.) was dissolved in deionized water to obtain a 200 mg/ml delivery agent solution. The free acid form of delivery agent as converted to the sodium salt by adding one equivalent of sodium hydroxide. Solutions were vortexted, sonicated, and heated. If necessary, additional sodium hydroxide was added in μl quantities to achieve uniform solubility in the delivery agent solutions. Solutions were adjusted to a pH of 3.5-8.5 by the addition of either hydrochloric acid or sodium hydroxide, as appropriate. The insulin stock solution was then added to the delivery agent solutions to obtain an administration solution ultimately having an insulin concentration of 0.5 mg/ml. After solubilization and drug addition, administration solutions were brought to a final volume by the addition of deionized water.
Insulin was administered to male, Sprague-Dawley rats either alone or in combination with delivery agent by oral gavage (PO). Typically, rats were fasted for 18-24 hours prior to dosing. A Rusch 8 French catheter was cut to 11 cm in length and adapted to fit a 1 ml syringe. The syringe was filled with dosing solution and the catheter was inserted into the rat mouth and fed down the esophagus (10.0 cm). The dosing solution was delivered by pressing the syringe plunger while holding the rat in an upright position. The doses of delivery agent and
[…] The dose volume was 1 ml/kg. The weight of the rats in this invention ranges from 250 to 300 grams. The rat was weighted prior to the test and the dose volume was adjusted accordingly.
Immediate to each blood sampling point, rats were exposed briefly (˜10 seconds) to carbon dioxide until prostrate. A 77-mm capillary tube was inserted into the retroorbital sinus. Typically, blood samples were collected prior to dosing (time=0) and at 15, 30, 45, and 60 minutes after dosing.
To determine the pharmacodynamic response, a hand-held glucometer (OneTouch Ultra, LifeScan—Johnson & Johnson, New Brunswick, N.J.) was used to measure whole blood glucose after administration of insulin or insulin and delivery agent. After discarding the first drop of blood, a small sample (˜5-10 μls) was touched to the glucometer test strip (OneTouch Ultra, LifeScan) and a blood glucose reading was generated by the meter. Typically, samples were collected prior to dosing (time 0) and at 15, 30, 45, and 60 minutes after dosing.

[1] = 15 min., insulin/delivery agent = 0.5 mg/200 mg per kg
[2] = 30 min., insulin/delivery agent = 0.5 mg/200 mg per kg
[3] = 45 min., insulin/delivery agent = 0.5 mg/200 mg per kg
[4] = 60 min., insulin/delivery agent = 0.5 mg/200 mg per kg
[5] = time 0, insulin/delivery agent = 0.5 mg/200 mg per kg

Row | Compound | Percent change in whole blood glucose from baseline (negative = reduction) [1] | Percent change in whole blood glucose from baseline (negative = reduction) [2] | Percent change in whole blood glucose from baseline (negative = reduction) [3] | Percent change in whole blood glucose from baseline (negative = reduction) [4] | Percent change in whole blood glucose from baseline (negative = reduction) [5]
1 | O=C(O)c1ccccc1OC1CCCC1 [Compound 10, 2-(cyclopentyloxy)benzoic acid] | −6.94% | −25.22% | −29.27% | −29.91% | +16.39%
2 | O=C(O)c1ccc(OCC2CCC2)cc1 [Compound 2, 4-(cyclobutylmethoxy)benzoic acid] | −20.04% | −32.2% | −32.51% | −19.95% | 7.51%
3 | O=C(O)c1ccc(OCC2CC2)cc1 [Compound 4, 4-(cyclopropylmethoxy)benzoic acid] | −11.80% | −32.15% | −21.14% | −16.78% | 1.72%
4 | O=C(O)c1ccccc1OCC1CCC1 [Compound 6, 2-(cyclobutylmethoxy)benzoic acid] | −9.25% | −20.51% | −2.61% | −2.75% | 6.37%
5 | O=C(O)CCc1ccc(OCC2CC2)cc1 [Compound 1, 3-[4-(cyclopropylmethoxy)phenyl]propanoic acid] | −17.26% | −38.35% | −43.75% | −42.48% | −4.64%
6 | O=C(O)c1ccccc1OCC1CC1 [Compound 9, 2-(cyclopropylmethoxy)benzoic acid] | −1.29% | −6.99% | −11.40% | −11.75% | −1.59%
7 | O=C(O)Cc1ccc(OCC2CC2)cc1 [Compound 5, [4-(cyclopropylmethoxy)phenyl]acetic acid] | −17.53% | −26.944% | −22.92% | −18.62% | −1.91%
8 | COc1cc(CC(=O)O)ccc1OC1CCCC1 [Compound 7, [4-(cyclopentyloxy)-3-methoxyphenyl]acetic acid] | −7.15% | −17.37% | −12.75% | −12.77% | 11.87%
9 | O=C(O)c1ccccc1OCC1CCCCC1 [Compound 11, 2-(cyclohexylmethoxy)benzoic acid] | −4.82% | −6.23% | −19.71% | −19.54% | −1.27%
10 | COc1cc(CC(=O)O)ccc1OCC1CCC1 [Compound 3, [4-(cyclobutylmethoxy)-3-methoxyphenyl]acetic acid] | −15.04% | −22.90% | −21.04% | −19.74% | 6.88%
11 | COc1cc(CC(=O)O)ccc1OCC1CC1 [Compound 8, [4-(cyclopropylmethoxy)-3-methoxyphenyl]acetic acid] | −1.61% | −14.21% | −16.12% | −18.19% | 18.75%
